# Read-outs that look alike come from different tables or passages of the source.
# Assays:
# Test in all cases: Test C pre/postemergence
# Assay type in all cases: in vivo
# [1] = test system: velvetleaf (Abutilon theophrasti); settings: Abutilon theophrasti; for pest or weed control at 31 g/ha: 31 g ai/ha; for pest or weed control at 62 g/ha: 62 g ai/ha; for pest or weed control at 125 g/ha: 125 g ai/ha; for pest or weed control at 250 g/ha: 250 g ai/ha
# Method in brief: (§1)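 We sprayed seeded pots preemergence and 2–18 cm seedlings postemergence with test chemicals in a non-phytotoxic solvent mixture including surfactant. Greenhouse plants were visually compared with untreated controls at 12 to 14 days and scored 0 (no effect) to 100 (complete control).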
# kochia (Kochia scoparia) = settings: Bassia scoparia; for pest or weed control at 31 g/ha: 31 g ai/ha; for pest or weed control at 62 g/ha: 62 g ai/ha; for pest or weed control at 125 g/ha: 125 g ai/ha; for pest or weed control at 250 g/ha: 250 g ai/ha
# Method in brief: as §1
# [2] = test system: woolly cupgrass (Eriochloa villosa); settings: Eriochloa villosa; for pest or weed control at 31 g/ha: 31 g ai/ha; for pest or weed control at 62 g/ha: 62 g ai/ha; for pest or weed control at 125 g/ha: 125 g ai/ha; for pest or weed control at 250 g/ha: 250 g ai/ha
# Method in brief: as §1
# [3] = test system: cocklebur (Xanthium strumarium); settings: Xanthium strumarium; for pest or weed control at 31 g/ha: 31 g ai/ha; for pest or weed control at 62 g/ha: 62 g ai/ha; for pest or weed control at 125 g/ha: 125 g ai/ha; for pest or weed control at 250 g/ha: 250 g ai/ha
# Method in brief: as §1
# [4] = test system: crabgrass (Digitaria sanguinalis); settings: Digitaria sanguinalis; for pest or weed control at 31 g/ha: 31 g ai/ha; for pest or weed control at 62 g/ha: 62 g ai/ha; for pest or weed control at 125 g/ha: 125 g ai/ha; for pest or weed control at 250 g/ha: 250 g ai/ha
# Method in brief: as §1
# [5] = test system: pigweed (Amaranthus retroflexus); settings: Amaranthus retroflexus; for pest or weed control at 31 g/ha: 31 g ai/ha; for pest or weed control at 62 g/ha: 62 g ai/ha
# Method in brief: as §1
# [6] = post-emergence, Postemergence, scale 0 to 100 (0 no effect, 100 complete control), read-out: Velvetleaf plant response rating
# [7] = pre-emergence, Preemergence, scale 0 to 100, 0 no effect, 100 complete control, read-out: Plant response rating, Velvetleaf
# [8] = pre-emergence, Preemergence, scale 0 to 100, read-out: Plant response rating, Velvetleaf
# [9] = post-emergence, Postemergence, scale 0 to 100 (0 no effect, 100 complete control), read-out: Kochia plant response rating
# [10] = pre-emergence, Preemergence, scale 0 to 100, 0 no effect, 100 complete control, read-out: Plant response rating, Kochia
# [11] = pre-emergence, Preemergence, scale 0 to 100, read-out: Plant response rating, Kochia
# [12] = post-emergence, Postemergence, scale 0 to 100 (0 no effect, 100 complete control), read-out: Cupgrass, Woolly plant response rating
# [13] = pre-emergence, Preemergence, scale 0 to 100, 0 no effect, 100 complete control, read-out: Plant response rating, Cupgrass, Woolly
# [14] = pre-emergence, Preemergence, scale 0 to 100, read-out: Plant response rating, Cupgrass, Woolly
# [15] = post-emergence, Postemergence, scale 0 to 100 (0 no effect, 100 complete control), read-out: Cocklebur plant response rating
# [16] = pre-emergence, Preemergence, scale 0 to 100, 0 no effect, 100 complete control, read-out: Plant response rating, Cocklebur
# [17] = pre-emergence, Preemergence, scale 0 to 100, read-out: Plant response rating, Cocklebur
# [18] = post-emergence, Postemergence, scale 0 to 100 (0 no effect, 100 complete control), read-out: Crabgrass plant response rating
# [19] = pre-emergence, Preemergence, scale 0 to 100, 0 no effect, 100 complete control, read-out: Plant response rating, Crabgrass
# [20] = pre-emergence, Preemergence, scale 0 to 100, read-out: Plant response rating, Crabgrass
# [21] = pre-emergence, Preemergence, scale 0 to 100, 0 no effect, 100 complete control, read-out: Plant response rating, Pigweed
smiles,measurement,setting,value
"COC(=O)c1nc(C2CC2)nc(N)c1Cl [Compound 9, methyl 6-amino-5-chloro-2-cyclopropyl-4-pyrimidinecarboxylate]",pest or weed control at 31 g/ha,"[1]; post-emergence, Postemergence, read-out: Plant response rating (scale of 0 to 100), Velvetleaf",0%
same,pest or weed control at 62 g/ha,[1]; [6],75%
same,pest or weed control at 125 g/ha,[1]; [6],80%
same,pest or weed control at 250 g/ha,"[1]; post-emergence, Postemergence, scale 0 to 100, read-out: Plant response rating, Velvetleaf",95%
same,pest or weed control at 31 g/ha,[1]; [7],70%
same,pest or weed control at 62 g/ha,[1]; [7],95%
same,pest or weed control at 125 g/ha,[1]; [8],100%
same,pest or weed control at 250 g/ha,[1]; [8],100%
same,pest or weed control at 31 g/ha,"kochia (Kochia scoparia); post-emergence, Postemergence, read-out: Plant response rating (scale of 0 to 100), Kochia",95%
same,pest or weed control at 62 g/ha,kochia (Kochia scoparia); [9],100%
same,pest or weed control at 125 g/ha,kochia (Kochia scoparia); [9],100%
same,pest or weed control at 250 g/ha,"kochia (Kochia scoparia); post-emergence, Postemergence, scale 0 to 100, read-out: Plant response rating, Kochia",100%
same,pest or weed control at 31 g/ha,kochia (Kochia scoparia); [10],95%
same,pest or weed control at 62 g/ha,kochia (Kochia scoparia); [10],95%
same,pest or weed control at 125 g/ha,kochia (Kochia scoparia); [11],100%
same,pest or weed control at 250 g/ha,kochia (Kochia scoparia); [11],100%
same,pest or weed control at 31 g/ha,"[2]; post-emergence, Postemergence, read-out: Plant response rating (scale of 0 to 100), Cupgrass, Woolly",40%
same,pest or weed control at 62 g/ha,[2]; [12],60%
same,pest or weed control at 125 g/ha,[2]; [12],70%
same,pest or weed control at 250 g/ha,"[2]; post-emergence, Postemergence, scale 0 to 100, read-out: Plant response rating, Cupgrass, Woolly",85%
same,pest or weed control at 31 g/ha,[2]; [13],0%
same,pest or weed control at 62 g/ha,[2]; [13],90%
same,pest or weed control at 125 g/ha,[2]; [14],95%
same,pest or weed control at 250 g/ha,[2]; [14],100%
same,pest or weed control at 31 g/ha,"[3]; post-emergence, Postemergence, read-out: Plant response rating (scale of 0 to 100), Cocklebur",40%
same,pest or weed control at 62 g/ha,[3]; [15],85%
same,pest or weed control at 125 g/ha,[3]; [15],100%
same,pest or weed control at 250 g/ha,"[3]; post-emergence, Postemergence, scale 0 to 100, read-out: Plant response rating, Cocklebur",100%
same,pest or weed control at 31 g/ha,[3]; [16],75%
same,pest or weed control at 62 g/ha,[3]; [16],80%
same,pest or weed control at 125 g/ha,[3]; [17],100%
same,pest or weed control at 250 g/ha,[3]; [17],100%
same,pest or weed control at 31 g/ha,"[4]; post-emergence, Postemergence, read-out: Plant response rating (scale of 0 to 100), Crabgrass",60%
same,pest or weed control at 62 g/ha,[4]; [18],70%
same,pest or weed control at 125 g/ha,[4]; [18],75%
same,pest or weed control at 250 g/ha,"[4]; post-emergence, Postemergence, scale 0 to 100, read-out: Plant response rating, Crabgrass",80%
same,pest or weed control at 31 g/ha,[4]; [19],20%
same,pest or weed control at 62 g/ha,[4]; [19],95%
same,pest or weed control at 125 g/ha,[4]; [20],95%
same,pest or weed control at 250 g/ha,[4]; [20],100%
same,pest or weed control at 31 g/ha,"[5]; post-emergence, Postemergence, read-out: Plant response rating (scale of 0 to 100), Pigweed",55%
same,pest or weed control at 62 g/ha,"[5]; post-emergence, Postemergence, scale 0 to 100 (0 no effect, 100 complete control), read-out: Pigweed plant response rating",70%
same,pest or weed control at 125 g/ha,"[5]; post-emergence, Postemergence, 125 g ai/ha, scale 0 to 100 (0 no effect, 100 complete control), read-out: Pigweed plant response rating",100%
same,pest or weed control at 250 g/ha,"[5]; post-emergence, Postemergence, 250 g ai/ha, scale 0 to 100, read-out: Plant response rating, Pigweed",100%
same,pest or weed control at 31 g/ha,[5]; [21],95%
same,pest or weed control at 62 g/ha,[5]; [21],95%
